The subject of one data set is A549. Briefly: Cytotoxicity against human A549 cells assessed as reduction in cell viability incubated for 72 hrs by CellTiter-Glo reagent based assay. It is filed as functional. As to conditions: A549, 72 h. (Cellular ATP, detected with luciferase, serves as a proxy for viable cell number.)
For data set [1], the system named is Balamuthia mandrillaris. Briefly: Anti-amoebic activity against Balamuthia mandrillaris CDC V093 (ATCC 50209) assessed as reduction in amoebae viability measured after 72 hrs by luminescent based CellTiter-Glo assay. It is filed as functional, organism-based.
Data set [2] in a line: Hemolytic activity in human red blood cells assessed as hemolysis at 100 uM incubated for 1 hr by absorbance based assay relative to control. As to conditions: read-out: Activity. It is filed as toxicity, cell-based, Erythrocyte.
The test system of a further data set is Lactococcus lactis. Nature of the data set: Antibacterial activity against Lactococcus lactis measured after 24 hrs. It is filed as functional, organism-based.
The test system of data set [3] is Balamuthia mandrillaris. Briefly: Anti-amoebic activity against Balamuthia mandrillaris assessed as reduction in amoebae viability measured after 72 hrs by luminescent based CellTiter-Glo assay. It is filed as functional, organism-based.
A short description of data set [4]: Selectivity index, ratio of IC50 for cytotoxicity against human A549 cells to IC50 for anti-amoebic activity against Balamuthia mandrillaris CDC V093 (ATCC 50209) assessed as reduction in amoebae viability. Conditions: read-out: Ratio IC50. It is filed as toxicity, cell-based.
In another data set the test system is Naegleria fowleri. Nature of the data set: Anti-amoebic activity against Naegleria fowleri assessed as reduction in amoebae viability measured for 72 hrs by luminescent based CellTiter-Glo assay. It is filed as functional, organism-based.
A further data set relates to Acanthamoeba castellanii. Nature of the data set: Anti-amoebic activity against Acanthamoeba castellanii assessed as reduction in amoebae viability measured for 72 hrs by luminescent based CellTiter-Glo assay. It is filed as functional, organism-based.

Molecules are shown by their SMILES. pIC50: −log10 of the molar value. Values after ≈ are worked out from the molar mass of the structure shown. Square brackets hold non-standard residues; d marks the D form. Peptide text beside a SMILES is read from it. dOrn = NCCC[C@@H](N)C(=O)O; Orn = NCCC[C@H](N)C(=O)O A value given as a limit tells only on which side of the number the result lay.

For orientation: pIC50 means the IC50 on a negative log10 scale, so that one unit is a factor of ten. As to `CC(C)[C@@H]1NC(=O)[C@@H](CCCCN)NC(=O)[C@H]([C@@H](C)O)NC(=O)[C@@H](CCCN)NC(=O)[C@H](Cc2ccccc2)NC(=O)[C@@H](Cc2ccccc2)NC1=O`, the pIC50 with A549 was < 4.00; in the data set with Balamuthia mandrillaris [1], 5.42. In data set [2], the hemolysis at 1 h, 100 µM is < 10%.

As to `C[C@@H]1NC(=O)[C@@H](CCCNC(=N)N)NC(=O)[C@H]([C@@H](C)O)NC(=O)[C@@H](CCCN)NC(=O)[C@H](Cc2ccccc2)NC(=O)[C@@H](Cc2ccccc2)NC1=O`, the pIC50 in the data set with Balamuthia mandrillaris [1] is < 4.70.

Usually IC50 stands for the concentration needed to halve the response being measured. In the data set on Lactococcus lactis, `C=C(NC(=O)[C@@H](NC(=O)[C@H](Cc1c[nH]cn1)NC(=O)[C@@H](NC(=O)[C@H](CO)NC(=O)[C@@H]1CS[C@@H](C)[C@H]2NC(=O)C(=C)NC(=O)[C@H](NC(=O)[C@H](CCCCN)NC(=O)[C@H](CCSC)NC(=O)[C@H](CC(N)=O)NC(=O)[C@@H]3CS[C@@H](C)[C@@H](NC(=O)[C@H](CCCNN)NC(=O)[C@@H]4CS[C@@H](C)[C@@H](NC(=O)[C@@H]5CSC[C@@H](NC(=O)/C(=C\C)NC(=O)[C@@H](N)[C@@H](C)CC)C(=O)N[C@@H]([C@@H](C)CC)C(=O)NC(=C)C(=O)N[C@@H]([C@@H](C)CC)C(=O)N5)C(=O)N5CCC[C@H]5C(=O)NCC(=O)N4)C(=O)NCC(=O)N[C@@H](C)C(=O)N[C@@H]([C@@H](C)CC)C(=O)N[C@@H](CCSC)C(=O)NCC(=O)N3)[C@H](C)SC[C@H](NC2=O)C(=O)N[C@@H](Cc2c[nH]cn2)C(=O)N1)[C@@H](C)CC)C(C)C)C(=O)N[C@@H](CCCCN)C(=O)O` yielded a half-maximal inhibitory concentration (IC50) of 4.5 mg/L (≈ 1.34 µM).

With `CC(C)[C@@H]1NC(=O)[C@@H](CCCNC(=N)N)NC(=O)[C@H]([C@@H](C)O)NC(=O)[C@@H](CCCN)NC(=O)[C@H](Cc2ccccc2)NC(=O)[C@@H](Cc2ccccc2)NC1=O`, the pIC50 in the data set with A549 is < 4.00; in the data set with Balamuthia mandrillaris [1], 5.30. In the data set on Balamuthia mandrillaris [3], the IC50 is 4 mg/L (≈ 5.23 µM). For the same compound, the hemolysis at 1 h, 100 µM in data set [2] was < 10%. In data set [4], the selectivity ratio at 72 h was > 20.

For `CC(C)[C@@H]1NC(=O)[C@@H](CO)NC(=O)[C@H](CCCNC(=N)N)NC(=O)[C@@H](Cc2ccccc2)NC1=O`, the IC50 with Naegleria fowleri stood at 6 mg/L (≈ 12.3 µM).

On to `CC(C)[C@@H]1NC(=O)[C@@H](CCCNC(=N)N)NC(=O)[C@H]([C@@H](C)O)NC(=O)[C@@H](C)NC(=O)[C@H](Cc2ccccc2)NC(=O)[C@@H](Cc2ccccc2)NC1=O`, for which the pIC50 in the data set with Balamuthia mandrillaris [1] is 4.92. The hemolysis at 1 h, 100 µM in data set [2] was < 10%.

For `CC(C)[C@@H]1NC(=O)[C@@H](CCCNC(=N)N)NC(=O)[C@H]([C@@H](C)O)NC(=O)[C@@H](CCCCN)NC(=O)[C@H](Cc2ccccc2)NC(=O)[C@@H](Cc2ccccc2)NC1=O`, the pIC50 with Balamuthia mandrillaris [1] was 5.39. Moreover, the hemolysis at 1 h, 100 µM in data set [2] was < 10%.

`CC(C)[C@@H]1NC(=O)[C@@H](CCCNC(=N)N)NC(=O)[C@H]([C@@H](C)O)NC(=O)[C@@H](CCCN)NC(=O)[C@H](C)NC(=O)[C@@H](Cc2ccccc2)NC1=O`: the pIC50 in the data set with Balamuthia mandrillaris [1] was < 4.70.

`CC(C)[C@@H]1NC(=O)[C@@H](C)NC(=O)[C@H]([C@@H](C)O)NC(=O)[C@@H](CCCN)NC(=O)[C@H](Cc2ccccc2)NC(=O)[C@@H](Cc2ccccc2)NC1=O`: the negative-log IC50 (pIC50) in the data set with Balamuthia mandrillaris [1] is < 4.70.

As to `C[C@@H]1NC(=O)[C@@H](CCCNC(=N)N)NC(=O)[C@H]([C@@H](C)O)NC(=O)[C@@H](CCCN)NC(=O)[C@H](Cc2ccccc2)NC(=O)[C@@H](C)NC1=O`, the pIC50 in the data set on Balamuthia mandrillaris [1] was < 4.70.

As for `CC(C)[C@@H]1NC(=O)[C@@H](CCCCN)NC(=O)[C@H]([C@@H](C)O)NC(=O)[C@@H](CCCCN)NC(=O)[C@H](Cc2ccccc2)NC(=O)[C@@H](Cc2ccccc2)NC1=O`, the pIC50 with Balamuthia mandrillaris [1] is 5.41. Further, the hemolysis at 1 h, 100 µM in data set [2] was < 10%.

`CC(C)[C@H](N)C(=O)N[C@H](Cc1ccccc1)C(=O)N[C@@H](Cc1ccccc1)C(=O)N[C@H](CCCN)C(=O)N[C@H](C(=O)N[C@H](CCCNC(=N)N)C(=O)O)[C@@H](C)O` (H-V[dF]F[dOrn]T[dR]-OH): the pIC50 in the data set with Balamuthia mandrillaris [1] was < 4.70. The hemolysis at 1 h, 100 µM in data set [2] was < 10%.

As for `CC(C)[C@@H]1NC(=O)[C@@H](CCCNC(=N)N)NC(=O)[C@H](C)NC(=O)[C@@H](CCCN)NC(=O)[C@H](Cc2ccccc2)NC(=O)[C@@H](Cc2ccccc2)NC1=O` (cyclo(A[dR]V[dF]F[dOrn])), the pIC50 with A549 was < 4.00; in the data set with Balamuthia mandrillaris [1], 5.07. The hemolysis at 1 h, 100 µM in data set [2] is < 10%.

In the case of `NCCC[C@@H]1NC(=O)[C@@H](CCCN)NC(=O)[C@H](Cc2ccccc2)NC(=O)[C@@H](Cc2ccccc2)NC(=O)[C@H](Cc2ccccc2)NC(=O)[C@@H](CCCN)NC1=O` (cyclo(F[dF]F[dOrn][Orn][dOrn])), the IC50 with Acanthamoeba castellanii was determined as 5.3 mg/L (≈ 6.76 µM).

The values are drawn from ChEMBL document CHEMBL6153136, “Cyclic Peptide Natural Product Inspired Inhibitors of the Free-Living Amoeba Balamuthia mandrillaris” (J Nat Prod, 2025).
